Key:
Experiment in all cases: relative viability (nuclei count vs DMSO), 5 days (fraction); higher = more cells survive
Bexarotene + Decitabine = compound: C=C(c1ccc(C(=O)O)cc1)c1cc2c(cc1C)C(C)(C)CCC2(C)C [Bexarotene] + Nc1ncn([C@H]2C[C@H](O)[C@@H](CO)O2)c(=O)n1 [Decitabine] (partner 2 µM)
In short: (§1)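 Lung cancer cell lines in 1536-well plates were dosed by pin tool the day after seeding, either with one drug alone or with a fixed anchor-drug dose plus five library-drug doses (not always all listed) in √10 steps. After 5 days, cells were fixed and their nuclei stained in one step (final 0.05% Triton X-100, 1% formaldehyde, 1 ug/ml Hoechst), then counted on 4× images. Relative viability is the nuclei count in treated wells divided by that in vehicle wells. Values are medians of duplicate plates.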

Bexarotene + Olaparib = compound: C=C(c1ccc(C(=O)O)cc1)c1cc2c(cc1C)C(C)(C)CCC2(C)C [Bexarotene] + O=C(c1cc(Cc2n[nH]c(=O)c3ccccc23)ccc1F)N1CCN(C(=O)C2CC2)CC1 [Olaparib] (partner 8 µM)
In short: as §1

Bexarotene + Lapatinib = compound: C=C(c1ccc(C(=O)O)cc1)c1cc2c(cc1C)C(C)(C)CCC2(C)C [Bexarotene] + CS(=O)(=O)CCNCc1ccc(-c2ccc3ncnc(Nc4ccc(OCc5cccc(F)c5)c(Cl)c4)c3c2)o1 [Lapatinib] (partner 2 µM)
In short: as §1

Bexarotene + AZD7762 = compound: C=C(c1ccc(C(=O)O)cc1)c1cc2c(cc1C)C(C)(C)CCC2(C)C [Bexarotene] + NC(=O)Nc1cc(-c2cccc(F)c2)sc1C(=O)N[C@H]1CCCNC1 [AZD7762] (partner 0.2 µM)
In short: as §1

Cell Line: NCI-H1944
- relative viability (Bexarotene + Decitabine; first compound 0.08 µM): 0.493
- relative viability (Bexarotene + Decitabine; first compound 0.253 µM): 0.472
- relative viability (Bexarotene + Decitabine; first compound 0.8 µM): 0.504
- relative viability (Bexarotene + Decitabine; first compound 2.53 µM): 0.464
- relative viability (Bexarotene + Decitabine; first compound 8 µM): 0.383
- relative viability (Bexarotene + Olaparib; first compound 0.08 µM): 0.625
- relative viability (Bexarotene + Olaparib; first compound 0.253 µM): 0.573
- relative viability (Bexarotene + Olaparib; first compound 0.8 µM): 0.617
- relative viability (Bexarotene + Olaparib; first compound 2.53 µM): 0.602
- relative viability (Bexarotene + Olaparib; first compound 8 µM): 0.494
- relative viability (Bexarotene + Lapatinib; first compound 0.08 µM): 1.17
- relative viability (Bexarotene + Lapatinib; first compound 0.253 µM): 0.934
- relative viability (Bexarotene + Lapatinib; first compound 0.8 µM): 0.961
- relative viability (Bexarotene + Lapatinib; first compound 2.53 µM): 0.929
- relative viability (Bexarotene + Lapatinib; first compound 8 µM): 0.768
- relative viability (Bexarotene + AZD7762; first compound 0.08 µM): 0.738
- relative viability (Bexarotene + AZD7762; first compound 0.253 µM): 0.733
- relative viability (Bexarotene + AZD7762; first compound 0.8 µM): 0.749
- relative viability (Bexarotene + AZD7762; first compound 2.53 µM): 0.694
- relative viability (Bexarotene + AZD7762; first compound 8 µM): 0.739

Cell Line: NCI-H1975
- relative viability (Bexarotene + Decitabine; first compound 0.08 µM): 0.359
- relative viability (Bexarotene + Decitabine; first compound 0.253 µM): 0.393
- relative viability (Bexarotene + Decitabine; first compound 0.8 µM): 0.443
- relative viability (Bexarotene + Decitabine; first compound 2.53 µM): 0.406
- relative viability (Bexarotene + Decitabine; first compound 8 µM): 0.392
- relative viability (Bexarotene + Olaparib; first compound 0.08 µM): 1.03
- relative viability (Bexarotene + Olaparib; first compound 0.253 µM): 0.906
- relative viability (Bexarotene + Olaparib; first compound 0.8 µM): 0.783
- relative viability (Bexarotene + Olaparib; first compound 2.53 µM): 0.851
- relative viability (Bexarotene + Olaparib; first compound 8 µM): 0.836
- relative viability (Bexarotene + Lapatinib; first compound 0.08 µM): 1.25
- relative viability (Bexarotene + Lapatinib; first compound 0.253 µM): 1.01
- relative viability (Bexarotene + Lapatinib; first compound 0.8 µM): 1
- relative viability (Bexarotene + Lapatinib; first compound 2.53 µM): 1.1
- relative viability (Bexarotene + Lapatinib; first compound 8 µM): 0.988
- relative viability (Bexarotene + AZD7762; first compound 0.08 µM): 0.676
- relative viability (Bexarotene + AZD7762; first compound 0.253 µM): 0.775
- relative viability (Bexarotene + AZD7762; first compound 0.8 µM): 0.672
- relative viability (Bexarotene + AZD7762; first compound 2.53 µM): 0.666
- relative viability (Bexarotene + AZD7762; first compound 8 µM): 0.668

Cell Line: NCI-H1993
- relative viability (Bexarotene + Decitabine; first compound 0.08 µM): 0.537
- relative viability (Bexarotene + Decitabine; first compound 0.253 µM): 0.484
- relative viability (Bexarotene + Decitabine; first compound 0.8 µM): 0.554
- relative viability (Bexarotene + Decitabine; first compound 2.53 µM): 0.576
- relative viability (Bexarotene + Decitabine; first compound 8 µM): 0.608
- relative viability (Bexarotene + Olaparib; first compound 0.08 µM): 0.979
- relative viability (Bexarotene + Olaparib; first compound 0.253 µM): 1.08
- relative viability (Bexarotene + Olaparib; first compound 0.8 µM): 0.94
- relative viability (Bexarotene + Olaparib; first compound 2.53 µM): 1.01
- relative viability (Bexarotene + Olaparib; first compound 8 µM): 0.896
- relative viability (Bexarotene + Lapatinib; first compound 0.08 µM): 0.858
- relative viability (Bexarotene + Lapatinib; first compound 0.253 µM): 0.826
- relative viability (Bexarotene + Lapatinib; first compound 0.8 µM): 0.809
- relative viability (Bexarotene + Lapatinib; first compound 2.53 µM): 0.802
- relative viability (Bexarotene + Lapatinib; first compound 8 µM): 0.814
- relative viability (Bexarotene + AZD7762; first compound 0.08 µM): 0.805
- relative viability (Bexarotene + AZD7762; first compound 0.253 µM): 0.83
- relative viability (Bexarotene + AZD7762; first compound 0.8 µM): 0.618
- relative viability (Bexarotene + AZD7762; first compound 2.53 µM): 0.851
- relative viability (Bexarotene + AZD7762; first compound 8 µM): 0.636

Cell Line: NCI-H2085
- relative viability (Bexarotene + Decitabine; first compound 0.08 µM): 0.539
- relative viability (Bexarotene + Decitabine; first compound 0.253 µM): 0.545
- relative viability (Bexarotene + Decitabine; first compound 0.8 µM): 0.512
- relative viability (Bexarotene + Decitabine; first compound 2.53 µM): 0.487
- relative viability (Bexarotene + Decitabine; first compound 8 µM): 0.536
- relative viability (Bexarotene + Olaparib; first compound 0.08 µM): 0.691
- relative viability (Bexarotene + Olaparib; first compound 0.253 µM): 0.709
- relative viability (Bexarotene + Olaparib; first compound 0.8 µM): 0.693
- relative viability (Bexarotene + Olaparib; first compound 2.53 µM): 0.676
- relative viability (Bexarotene + Olaparib; first compound 8 µM): 0.694
- relative viability (Bexarotene + Lapatinib; first compound 0.08 µM): 0.739
- relative viability (Bexarotene + Lapatinib; first compound 0.253 µM): 0.723
- relative viability (Bexarotene + Lapatinib; first compound 0.8 µM): 0.596
- relative viability (Bexarotene + Lapatinib; first compound 2.53 µM): 0.703
- relative viability (Bexarotene + Lapatinib; first compound 8 µM): 0.731
- relative viability (Bexarotene + AZD7762; first compound 0.08 µM): 0.868
- relative viability (Bexarotene + AZD7762; first compound 0.253 µM): 0.92
- relative viability (Bexarotene + AZD7762; first compound 0.8 µM): 0.803
- relative viability (Bexarotene + AZD7762; first compound 2.53 µM): 0.789
- relative viability (Bexarotene + AZD7762; first compound 8 µM): 0.815

Cell Line: NCI-H2087
- relative viability (Bexarotene + Decitabine; first compound 0.08 µM): 0.303
- relative viability (Bexarotene + Decitabine; first compound 0.253 µM): 0.277
- relative viability (Bexarotene + Decitabine; first compound 0.8 µM): 0.242
- relative viability (Bexarotene + Decitabine; first compound 2.53 µM): 0.227
- relative viability (Bexarotene + Decitabine; first compound 8 µM): 0.215
- relative viability (Bexarotene + Olaparib; first compound 0.08 µM): 0.689
- relative viability (Bexarotene + Olaparib; first compound 0.253 µM): 0.72
- relative viability (Bexarotene + Olaparib; first compound 0.8 µM): 0.582
- relative viability (Bexarotene + Olaparib; first compound 2.53 µM): 0.481
- relative viability (Bexarotene + Olaparib; first compound 8 µM): 0.58
- relative viability (Bexarotene + Lapatinib; first compound 0.08 µM): 1.06
- relative viability (Bexarotene + Lapatinib; first compound 0.253 µM): 1.16
- relative viability (Bexarotene + Lapatinib; first compound 0.8 µM): 1.2
- relative viability (Bexarotene + Lapatinib; first compound 2.53 µM): 0.98
- relative viability (Bexarotene + Lapatinib; first compound 8 µM): 0.883
- relative viability (Bexarotene + AZD7762; first compound 0.08 µM): 1.33
- relative viability (Bexarotene + AZD7762; first compound 0.253 µM): 1.3
- relative viability (Bexarotene + AZD7762; first compound 0.8 µM): 1.2
- relative viability (Bexarotene + AZD7762; first compound 2.53 µM): 1.35
- relative viability (Bexarotene + AZD7762; first compound 8 µM): 1.16

Cell Line: NCI-H2126
- relative viability (Bexarotene + Decitabine; first compound 0.08 µM): 0.631
- relative viability (Bexarotene + Decitabine; first compound 0.253 µM): 0.696
- relative viability (Bexarotene + Decitabine; first compound 0.8 µM): 0.575
- relative viability (Bexarotene + Decitabine; first compound 2.53 µM): 0.571
- relative viability (Bexarotene + Decitabine; first compound 8 µM): 0.554
- relative viability (Bexarotene + Olaparib; first compound 0.08 µM): 0.927
- relative viability (Bexarotene + Olaparib; first compound 0.253 µM): 0.912
- relative viability (Bexarotene + Olaparib; first compound 0.8 µM): 0.855
- relative viability (Bexarotene + Olaparib; first compound 2.53 µM): 0.837
- relative viability (Bexarotene + Olaparib; first compound 8 µM): 0.816
- relative viability (Bexarotene + Lapatinib; first compound 0.08 µM): 0.768
- relative viability (Bexarotene + Lapatinib; first compound 0.253 µM): 0.741
- relative viability (Bexarotene + Lapatinib; first compound 0.8 µM): 0.73
- relative viability (Bexarotene + Lapatinib; first compound 2.53 µM): 0.81
- relative viability (Bexarotene + Lapatinib; first compound 8 µM): 0.757
- relative viability (Bexarotene + AZD7762; first compound 0.08 µM): 1.07
- relative viability (Bexarotene + AZD7762; first compound 0.253 µM): 0.971
- relative viability (Bexarotene + AZD7762; first compound 0.8 µM): 0.916
- relative viability (Bexarotene + AZD7762; first compound 2.53 µM): 0.994
- relative viability (Bexarotene + AZD7762; first compound 8 µM): 1.02

Cell Line: NCI-H2170
- relative viability (Bexarotene + Decitabine; first compound 0.08 µM): 0.438
- relative viability (Bexarotene + Decitabine; first compound 0.253 µM): 0.463
- relative viability (Bexarotene + Decitabine; first compound 0.8 µM): 0.446
- relative viability (Bexarotene + Decitabine; first compound 2.53 µM): 0.417
- relative viability (Bexarotene + Decitabine; first compound 8 µM): 0.465
- relative viability (Bexarotene + Olaparib; first compound 0.08 µM): 0.576
- relative viability (Bexarotene + Olaparib; first compound 0.253 µM): 0.645
- relative viability (Bexarotene + Olaparib; first compound 0.8 µM): 0.574
- relative viability (Bexarotene + Olaparib; first compound 2.53 µM): 0.609
- relative viability (Bexarotene + Olaparib; first compound 8 µM): 0.562
- relative viability (Bexarotene + Lapatinib; first compound 0.08 µM): 0.264
- relative viability (Bexarotene + Lapatinib; first compound 0.253 µM): 0.245
- relative viability (Bexarotene + Lapatinib; first compound 0.8 µM): 0.275
- relative viability (Bexarotene + Lapatinib; first compound 2.53 µM): 0.305
- relative viability (Bexarotene + Lapatinib; first compound 8 µM): 0.273
- relative viability (Bexarotene + AZD7762; first compound 0.08 µM): 0.877
- relative viability (Bexarotene + AZD7762; first compound 0.253 µM): 0.796
- relative viability (Bexarotene + AZD7762; first compound 0.8 µM): 0.812
- relative viability (Bexarotene + AZD7762; first compound 2.53 µM): 0.775
- relative viability (Bexarotene + AZD7762; first compound 8 µM): 0.735

Cell Line: NCI-H2347
- relative viability (Bexarotene + Decitabine; first compound 0.08 µM): 0.621
- relative viability (Bexarotene + Decitabine; first compound 0.253 µM): 0.705
- relative viability (Bexarotene + Decitabine; first compound 0.8 µM): 0.606
- relative viability (Bexarotene + Decitabine; first compound 2.53 µM): 0.686
- relative viability (Bexarotene + Decitabine; first compound 8 µM): 0.565
- relative viability (Bexarotene + Olaparib; first compound 0.08 µM): 0.583
- relative viability (Bexarotene + Olaparib; first compound 0.253 µM): 0.614
- relative viability (Bexarotene + Olaparib; first compound 0.8 µM): 0.552
- relative viability (Bexarotene + Olaparib; first compound 2.53 µM): 0.42
- relative viability (Bexarotene + Olaparib; first compound 8 µM): 0.647
- relative viability (Bexarotene + Lapatinib; first compound 0.08 µM): 1.18
- relative viability (Bexarotene + Lapatinib; first compound 0.253 µM): 1.1
- relative viability (Bexarotene + Lapatinib; first compound 0.8 µM): 0.669
- relative viability (Bexarotene + Lapatinib; first compound 2.53 µM): 1.06
- relative viability (Bexarotene + Lapatinib; first compound 8 µM): 0.917
- relative viability (Bexarotene + AZD7762; first compound 0.08 µM): 0.794
- relative viability (Bexarotene + AZD7762; first compound 0.253 µM): 0.86
- relative viability (Bexarotene + AZD7762; first compound 0.8 µM): 0.688
- relative viability (Bexarotene + AZD7762; first compound 2.53 µM): 0.691
- relative viability (Bexarotene + AZD7762; first compound 8 µM): 0.754
